1 molecule from article PMC8006777 (Journal of the American Chemical Society, 2020) can be followed below.

For this test, the target named is MPP1 (Manganese Porphyrin-binding Protein 1). Briefly: UV-vis absorption titration. More on the design: species or system synthetic construct.

Consider `C1=CC2=[N+]3C1=Cc1ccc4[n]1[Mn-]31[n]3c(ccc3=C2c2ccccc2)=CC2=[N+]1C(=C4c1ccccc1)C=C2` (stereo not shown) [Mn(III)DPP], for which the equilibrium dissociation constant (Kd) came to 122 ± 19 nM.
